Reference: patent publication US20250352555A1, “METHOD OF INCREASING IMMUNE CELL ACTIVATION AND/OR TREATING CANCER USING DIBENZOXAZEPINONES” (VASCULAR THERAPEUTICS PTY LTD, priority 2022, published 2025)

Legend:
MeWo cells = assay: Cell morphology study, MeWo; format: cell-based, human; details: 1 μM, 24 h
Protocol: (§1) Cell morphology studies. Cells were grown in medium containing 10% FBS in 4-well chamber slides. The following day the cells were incubated in medium containing 10% FBS and vehicle, BT2 or SCH772984 at 1 μM for 24 h, then fixed with 4% paraformaldehyde solution for 15 min. After washing briefly in PBS the cells were stained with hemotoxylin and eosin. The slides were scanned using an Aperio ScanScope XT slide scanner (Leica Biosystems, Mt Waverley, Vic, Australia) and images were captured using ImageScope software (Leica Biosystems).
(§2) The morphology of A375 and MeWo cells exposed to 1 μM of BT2 or SCH772984 for 24 h was also assessed.

A375 cells [1] = assay: Migration assay (scratch), A375; format: cell-based, human; details: 1 μM, 24 h, with greater potency than SCH772984
Protocol: Migration assays. Cells were grown in medium containing 10% FBS in 6-well plates. The following day the cells were scratched with a sterile toothpick, washed with PBS, and incubated in medium containing 10% FBS and vehicle, BT2 or SCH772984 at 1 μM. At 0, 24 h and 48 h the cells were photographed under a 4× objective using an Olympus CKX41 microscope. To assess the effect of BT2 on melanoma cell migration, A375 and MeWo cells were incubated with 1 μM of BT2 or SCH772984, and A375 and MeWo migration into the denuded zone was quantified after 24 or 48 h, respectively.

total ERK = assay: Immunohistochemistry of B16F10 tumors (Day 17), total ERK; format: in vivo, mouse; details: B16F10 tumors Day 17, 200 mg/kg i.p.
Description: Immunohistochemical staining and analyses. Rabbit monoclonal anti-CD3 (cat. no. ab16669; mouse, rat and human reactive), rabbit monoclonal anti-PD-1 (cat. no. ab214421), rabbit monoclonal anti-CD68 (cat. no. ab125212) antibodies were obtained from Abcam, rabbit monoclonal anti-phospho-ERK (Thr^202/Tyr^204) (cat. no. CST4370), rabbit monoclonal total ERK (cat. no. CST4695), antibodies were obtained from Cell Signaling Technology. Rabbit polyclonal anti-PD-L1 (cat. no. PA5-20343) antibody was obtained from ThermoFisher.
Formalin fixed, paraffin embedded sections were prepared from tumors. Heat-induced epitope retrieval was applied to all deparaffinized sections (4 μm sections on Superfrost slides) with citrate buffer, pH 6.0 for 5 min at 110° C. […] Integrated optical density (IOD) or area of positive staining (red chromagen) was assessed using Image-Pro Plus software (Cybernetics, Bethesda, MD, USA). Positive staining was the average of quantitation in 4-8 fields of view under 20× or 40× objectives.
To assess the effect of BT2 in the same model, C57BL/6J mice bearing s.c. B16F10 tumors were administered with BT2 or vehicle (200 mg/kg or 20 ml/kg, respectively, i.p.) once a day on a 5 days-on/2 days-off schedule. […] Tumor size on Day 17 measured using callipers (FIG. 10A) correlated with isolated weighed tumors (FIG. 10B).

PD-1 = assay: Western blotting for PD-1, Jurkat T cells; format: cell-based, human; details: various concentrations, 24 h
Protocol: Western blotting. Cells were treated with compounds and times indicated and total cell lysates were prepared in RIPA buffer. Lysates (10 μg) were resolved by SDS-PAGE and transferred to Immobilon-P polyvinylidene difluoride (PVDF) membranes (Millipore, USA).
Membranes were blocked with 5% skim milk and incubated with rabbit monoclonal anti-c-Jun (Abcam, cat. no. ab32137; mouse, rat and human reactive) antibody, rabbit monoclonal anti-PD-1 (Abcam, cat. no. ab214421) antibody, mouse monoclonal β-actin antibody (Sigma-Aldrich, cat. no. A5316), anti-phospho-SAPK/JNK (Thr^183/Tyr^185) (98F2) (CST, cat. no. 4671) antibody, anti-phospho-p44/42 MAPK (ERK1/2) (Thr^202/Tyr^204) (D13.14.4E) (CST, cat. no. 4370) antibody, anti-phospho-p38 MAPK (Thr^180/Tyr^182) (D3F9) (CST, cat. no. 4511) antibody, anti-SAPK/JNK antibody (CST, cat. no. 9252), anti-p44/42 MAPK (ERK1/2) (137F5) antibody (CST, cat. no. 4695), anti-p38 MAPK antibody (CST, cat. no. 9212), anti-DUSP8 antibody (Abcam, cat. no. ab198175) or anti-c-MAF (BLR045F) antibody (Abcam, cat. no. ab243901). This was followed by incubation with horseradish peroxidase-conjugated secondary goat anti-rabbit (DAKO, cat. no. P0448) or goat anti-mouse (DAKO, cat. no. P0447) antibody. Chemiluminescence was detected using the Western Lightning Chemiluminescence system (Thermo Scientific, USA) and ImageQuant™ LAS 4000 biomolecular imager (GE Healthcare Life Sciences, USA). Band intensity in images generated with the LAS 4000 was quantified using NIH Image J.

A375 cells [2] = assay: Cell morphology study, A375; format: cell-based, human; details: 1 μM, 24 h
Protocol: as §1, §2

`CCOC(=O)Nc1ccc2c(c1)C(=O)N(CC)c1ccccc1O2` [BT2, (10-ethyl-11-oxo-10,11-dihydro-dibenzo[b,f][1,4]oxazepin-2-yl)-carbamic acid ethyl ester] was tested, and the cell morphology (MeWo cells) was “loss of spindle morphology and cell rounding”, the “migration into the denuded zone” value (A375 cells [1]) was “suppressed melanoma migration” and the “total ERK levels in tumors (IHC)” value (total ERK) was “without affecting total ERK levels”. For the same compound, the “PD-1 expression (Western blot)” value (PD-1) was “suppressed by BT2 in a dose-dependent manner” and the cell morphology (A375 cells [2]) was “loss of spindle morphology and cell rounding”.
